The record followed here is patent US6894185B2, “Substituted chiral allosteric hemoglobin modifiers” (Allós Therapeutics, Inc., priority 1999, dated 2005).

For one data set, the target named is T1, hemoglobin (Homo sapiens, UniProt P68871+P69905).
T1 construct: The whole blood samples were collected in heparinized tubes from healthy volunteers; from tissue; host or cells: human whole blood (heparinized) from healthy volunteers
Put plainly: In vitro whole blood studies (multi-point tonometry and blood gas analysis). The data set is classed as cell-based. Conditions: Table III. In a few lines: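 Heparinized human whole blood from healthy volunteers with effector (sodium salt) at 5.0 mM, incubated ~10–12 min at 37 °C in tonometers and equilibrated at 20%, 40% and 60% O2. pO2 and sO2 measured by blood gas analyzer and co-oximeter; P50 and Hill coefficient by non-linear regression.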

T1 sequence (P69905 2-142 limits assumed): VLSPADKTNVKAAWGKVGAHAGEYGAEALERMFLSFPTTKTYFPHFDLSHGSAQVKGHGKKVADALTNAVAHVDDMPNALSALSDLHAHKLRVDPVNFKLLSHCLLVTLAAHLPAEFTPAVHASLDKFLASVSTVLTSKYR
T1 sequence (P68871 2-147 limits assumed): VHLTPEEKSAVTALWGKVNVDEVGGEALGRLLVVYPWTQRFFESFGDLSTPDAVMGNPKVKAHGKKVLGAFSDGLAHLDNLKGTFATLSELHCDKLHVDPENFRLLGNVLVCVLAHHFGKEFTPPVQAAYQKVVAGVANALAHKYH

On to `Cc1cc(C)cc(NC(=O)Cc2ccc(OC3(C(=O)N[C@@H](CO)C(=O)O)CCCC3)cc2)c1` [Compound 50, 1-[4-(((3,5-dimethylanilino)carbonyl)methyl)phenoxy]cyclopentanecarbonyl-L-serine], for which the melting point (usually the temperature of the solid-liquid transition) lay in the range of 58 to 59 °C. Further, the “Whole Blood Δp50 mm Hg” value at hemoglobin came out at 5 mm Hg.

In turn, `Cc1cc(C)cc(NC(=O)Cc2ccc(OC3(C(=O)N[C@@H](CCCCN)C(=O)O)CCCC3)cc2)c1` [Compound 62, 1-[4-(((3,5-dimethylanilino)carbonyl)methyl)phenoxy]cyclopentanecarbonyl-L-lysine] had a melting point of 124 to 125 °C. Moreover, the “Whole Blood Δp50 mm Hg” value at hemoglobin is −0.6 mm Hg.

`CSCC[C@@H](NC(=O)C1(Oc2ccc(CC(=O)Nc3cc(C)cc(C)c3)cc2)CCCC1)C(=O)O` [Compound 51, 1-[4-(((3,5-dimethylanilino)carbonyl)methyl)phenoxy]cyclopentanecarbonyl-D-methionine] came in with a melting point of 54 to 55 °C. At hemoglobin, the “Whole Blood Δp50 mm Hg” value was 27 mm Hg.

In the case of `Cc1cc(C)cc(NC(=O)Cc2ccc(OC3(C(=O)N[C@@H](C)C(=O)O)CCCC3)cc2)c1` [Compound 39, 1-[4-(((3,5-dimethylanilino)carbonyl)methyl)phenoxy] cyclopentanecarbonyl-L-alanine], the melting point lay within 117 to 118 °C. Further, the “Whole Blood Δp50 mm Hg” value on hemoglobin turned out to be 22 mm Hg.

For the compound `Cc1cc(C)cc(NC(=O)Cc2ccc(OC3(C(=O)N[C@H](Cc4ccccc4)C(=O)O)CCCC3)cc2)c1` [Compound 44, 1-[4-(((3,5-dimethylanilino)carbonyl)methyl)phenoxy]cyclopentanecarbonyl-D-phenylalanine], the melting point lay in the range of 106 to 108 °C. Moreover, the “Whole Blood Δp50 mm Hg” value on hemoglobin amounted to 38 mm Hg.
